Broadly, the IC50 is the point on the concentration scale where inhibition reaches its midpoint. One may read the IC90 as the concentration at which the effect reaches the 90% level.

Here are results for 26 molecules from ChEMBL document CHEMBL4483862, “Open-source discovery of chemical leads for next-generation chemoprotective antimalarials” (2018).

Some results are limits rather than exact numbers.

The subject of the experiment is Plasmodium berghei. The experiment in a line: Luciferase/luciferin-expressing antifolate-resistant parasites were used to infect a culture of HepG2 cells that were pre-incubated with compounds. Infected hepatocytes emit light due to the luciferase reaction. Assay results are presented as the percent inhibition of light emission compared to control. […]. Format: functional. Conditions: sporozoite; for IC90: read-out: LUCIFERASE INFECTION ASSAY - IC90.

The mark [1] stands for this setting: read-out: LUCIFERASE INFECTION ASSAY - IC50.

As for `CC(C)C(C)CCC(C)C1CC=C2C3CCC4CC(O)CCC4(C)C3CCC21C` (configuration not stated), the IC90 stood at 0.344 µM. In addition, where the note is “HEPG2TOX_HILL_SLOPE 17.3, HEPG2TOX_R_SQUARED 0.943, PBLUC_HILL_SLOPE 11.3, PBLUC_R_SQUARED 0.846, read-out: LUCIFERASE INFECTION ASSAY - IC50”, the IC50 was found to be 0.284 µM.
In the case of `CN(CC(=O)Nc1ccc(-c2nc3ccccc3[nH]2)cc1)S(=O)(=O)c1cccs1`, the 90% effect concentration (IC90) is over 10 µM. Besides, the IC50 (PBLUC_HILL_SLOPE 3.6, PBLUC_R_SQUARED 0.614, read-out: LUCIFERASE INFECTION ASSAY - IC50) was 8.33 µM.
As to `CCCc1c(NC(=O)Nc2ccc(F)cc2)cnn1-c1ccccc1`, the IC90 was 6.91 µM. In addition, where the note is “HEPG2TOX_HILL_SLOPE 4.02, HEPG2TOX_R_SQUARED 0.285, PBLUC_HILL_SLOPE 3.66, PBLUC_R_SQUARED 0.261, read-out: LUCIFERASE INFECTION ASSAY - IC50”, the IC50 was found to be 3.79 µM.
`CCOC(=O)c1sc(N)c(C#N)c1COC(=O)C1CCN(S(=O)(=O)c2ccc(C)c(C)c2)CC1`: the concentration for an effect of 90% (IC90) was over 10 µM. In addition, under setting [1], the IC50 was over 10 µM.
Regarding `Cc1cc(C)c(-c2csc(NC(=O)Cc3ccccc3)n2)c(C)c1`, the concentration for an effect of 90% (IC90) was 3.56 µM. The concentration for half-maximal inhibition (IC50) under setting [1] came to 2.81 µM.
For `O=C(O)c1cnc2cc(Cl)cc(Cl)c2c1O`, the IC90 was over 12.8 µM. Further, the IC50 (FFLUC_HILL_SLOPE 2.26, FFLUC_R_SQUARED 0.266, PBLUC_HILL_SLOPE 1.77, PBLUC_R_SQUARED 0.584, read-out: LUCIFERASE INFECTION ASSAY - IC50) came out at 8.35 µM.
For `COc1cc2nc(NC(=O)c3[nH]c4c(c3C)C(=O)CCC4)sc2cc1OC`, the concentration for an effect of 90% (IC90) was over 10 µM. Under setting [1], the IC50 was over 10 µM.
For the molecule `O=C(CN1CCN(C(c2ccc(F)cc2)c2ccc(F)cc2)CC1)Nc1nnc(-c2ccccc2)o1`, the IC90 was 1.43 µM. In addition, the half-inhibitory concentration (IC50) under setting [1] amounted to 1.23 µM.
In the case of `CCNC(=O)Cn1c(=O)/c(=C\c2ccccc2Cl)s/c1=C\C(=O)c1ccccc1C`, the IC90 is over 10 µM. The half-inhibitory concentration (IC50) under setting [1] is over 10 µM.
`COC(=O)c1c(C)[nH]c(-c2nc(NCc3ccc(C)cc3)sc2C)c1C`: the IC90 is 8.74 µM. Also, where the note is “HEPG2TOX_HILL_SLOPE 1.4, HEPG2TOX_R_SQUARED 0.957, PBLUC_HILL_SLOPE 3.81, PBLUC_R_SQUARED 0.59, read-out: LUCIFERASE INFECTION ASSAY - IC50”, the IC50 came out at 4.91 µM.
As for `O=C(NC1CC1)c1ccc(-c2cnc3c(NCc4ccco4)nccn23)cc1`, the IC90 was 3.44 µM. Moreover, the 50% inhibitory concentration (IC50) (HEPG2TOX_HILL_SLOPE 10.4, HEPG2TOX_R_SQUARED 0.433, PBLUC_HILL_SLOPE 17.4, PBLUC_R_SQUARED 0.253, read-out: LUCIFERASE INFECTION ASSAY - IC50) was 3.03 µM.
`Cc1noc(C)c1CSc1ncccc1C(=O)N(C)c1ccc2ccccc2c1`: the 90% effect concentration (IC90) was over 10 µM. Further, the IC50 under setting [1] is over 10 µM.
`CCCn1c(=O)n(CC(=O)Nc2ccc(C)c(C)c2)c(=O)c2c1nc(C(F)(F)F)n2CCOC`: the concentration for an effect of 90% (IC90) is over 10 µM. Besides, the 50% inhibitory concentration (IC50) (PBLUC_HILL_SLOPE 0.949, PBLUC_R_SQUARED 0.63, read-out: LUCIFERASE INFECTION ASSAY - IC50) came out at 1.57 µM.
Take `CN(Cc1nc2ccccc2s1)C(=O)CSc1nnc(N2CCCCC2)n1-c1ccccc1`: the concentration for an effect of 90% (IC90) is over 10 µM. Under setting [1], the IC50 is over 10 µM.
With `Cc1ccc(CNC(=O)c2ccc(/C=C3\SC(=O)NC3=O)cc2)cc1`, the IC90 was over 10 µM. For the same molecule, under “PBLUC_HILL_SLOPE 1.15, PBLUC_R_SQUARED 0.802, read-out: LUCIFERASE INFECTION ASSAY - IC50”, the half-inhibitory concentration (IC50) was determined as 2.5 µM.
Regarding `O=C(Nc1ccc(Cl)cc1)n1ncc(Sc2ccc(Cl)cc2)c1-c1ccc(Cl)cc1`, the IC90 is over 6.95 µM. Besides, the 50% inhibitory concentration (IC50) under setting [1] is over 6.95 µM.
Turning to `CC(NC(=O)COC(=O)c1cc(O)c2ccccc2c1O)C1CC2CCC1C2` (configuration not stated), the IC90 was over 10 µM. Moreover, under setting [1], the 50% inhibitory concentration (IC50) is over 10 µM.
In the case of `CNC(=O)c1cccc(NC(=O)c2cc(Cl)c[nH]2)c1`, the 90% effect concentration (IC90) was over 10 µM. Under setting [1], the half-inhibitory concentration (IC50) was over 10 µM.
For the molecule `COc1cc(Nc2nccn3c(-c4ccc(OC(F)(F)F)cc4)cnc23)cc(OC)c1OC`, the IC90 was found to be 4.53 µM. In addition, for the setting “HEPG2TOX_HILL_SLOPE 16.8, HEPG2TOX_R_SQUARED 0.492, PBLUC_HILL_SLOPE 4.79, PBLUC_R_SQUARED 0.767, read-out: LUCIFERASE INFECTION ASSAY - IC50”, the IC50 came to 2.86 µM.
Regarding `Cc1cc(Oc2ccc(NC(=O)Nc3c(-c4c(Cl)cccc4Cl)noc3C)cn2)cc(C)c1Cl`, the IC90 is over 6.37 µM. Also, under “FFLUC_HILL_SLOPE 16.7, FFLUC_R_SQUARED 0.348, read-out: LUCIFERASE INFECTION ASSAY - IC50”, the IC50 was over 6.37 µM.
`COc1cc(/C=C2/C(=O)Nc3cc(Cl)ccc32)c([N+](=O)[O-])cc1OC(F)F`: the IC90 is 4.58 µM. Moreover, the concentration for half-maximal inhibition (IC50) (HEPG2TOX_HILL_SLOPE 4.03, HEPG2TOX_R_SQUARED 0.974, PBLUC_HILL_SLOPE 1.79, PBLUC_R_SQUARED 0.765, read-out: LUCIFERASE INFECTION ASSAY - IC50) was 1.34 µM.
`C#CCNS(=O)(=O)c1ccc(C(=O)Nc2ccccc2O)cc1`: the concentration for an effect of 90% (IC90) came out at 7.83 µM. The IC50 (PBLUC_HILL_SLOPE 1.57, PBLUC_R_SQUARED 0.611, read-out: LUCIFERASE INFECTION ASSAY - IC50) came to 1.93 µM.
For `CCc1ccc(C(=O)C(C)Sc2ccc(S(=O)(=O)N3CCOCC3)cn2)cc1` (configuration not stated), the IC90 was over 10 µM. Under setting [1], the IC50 is over 10 µM.
As to `O=C1NC2(CCOc3ccccc32)C(=O)N1CC(=O)N1N=C(c2ccc(Cl)cc2)CC1c1ccco1` (configuration not stated), the IC90 was over 10 µM. Moreover, under “PBLUC_HILL_SLOPE 2.24, PBLUC_R_SQUARED 0.678, read-out: LUCIFERASE INFECTION ASSAY - IC50”, the IC50 is 5.4 µM.
For the molecule `O=C(NNC(=O)c1nn(-c2ccccc2)cc1O)c1ccc2c(c1)OCO2`, the IC90 was determined as 6.28 µM. Where the note is “PBLUC_HILL_SLOPE 71.1, PBLUC_R_SQUARED 0.59, read-out: LUCIFERASE INFECTION ASSAY - IC50”, the IC50 was 6.09 µM.
For `O=C1/C(=C/c2ccc(F)cc2)COC/C1=C\c1ccc(F)cc1`, the concentration for an effect of 90% (IC90) was over 10.6 µM. Also, under “HEPG2TOX_HILL_SLOPE 8.86, HEPG2TOX_R_SQUARED 0.951, read-out: LUCIFERASE INFECTION ASSAY - IC50”, the IC50 was over 10.6 µM.
